We go through 32 molecules from PubChem BioAssay (NCI).

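Following 48 hours of exposure in 96-well plates, responses at five concentrations were used to interpolate endpoints linearly. At the TGI there is no net growth.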

One test concerns NCI-H522 lung. The test can be described thus: growth of human tumour cells (NCI), 48 h.
Consider `O=C(Nc1ccc(Br)cc1)c1c(-c2ccccc2)c2ccc(O)cc2oc1=O`, for which the TGI is more than 10 µM.
The same measure, in the same setting: the same measure for `CC1=C(O)C(=O)[C@@H]2O[C@@H]2C1=O`: 4.56 µM; for `Cc1ccc(-c2c(C#N)c(-c3ccccc3)n(NS(=O)(=O)c3ccccc3)c(=O)c2C#N)cc1`: more than 100 µM; for `COc1ccc(C(C#N)NNC(=O)c2ccccc2O)cc1OC` (stereo not drawn): 30.1 µM.
Still for that read-out and setting: the same measure for `O=c1[nH]n2c(=O)cc[nH]c2c1-c1nnns1`: more than 100 µM; for `CCCc1cc(=O)c2c(C)c3[nH]c4ccc(Cl)cc4c3c(C)c2[nH]1`: 4.51 µM.
On the same count and under the same terms, the same measure for `CC(CN1c2ccccc2Sc2ccccc21)N(C)C` (stereo not drawn): 36.3 µM.
`N.N.N.O=[N+]([O-])[O-].O=[N+]([O-])[O-].O=[N+]([O-])[O-].O=[N+]([O-])[O-].[Co+3]` yielded a TGI of more than 100 µM.
Molecule `Cc1nnc(Nc2ccccc2)o1` gave a TGI of more than 100 µM.

The test system of the next test is HCC-2998 colon. The test can be described thus: growth of human tumour cells (NCI), 48 h.
In turn, `NC(C(F)(F)F)(C(F)(F)F)P(=O)(Cc1ccccc1)Cc1ccccc1` showed a TGI of more than 100 µM.
Still for that read-out and setting: the same measure for `O=C(O)CSc1nnc(COc2ccc(Cl)cc2)n1-c1ccccc1`: more than 100 µM.
Molecule `Cc1cc(N(CCC#N)CCC#N)ccc1/C=N/NC(=O)c1cc(Cl)ccc1O` showed a TGI of more than 100 µM.
The molecule `CC[C@]1(Cc2ccc(OC)c(OC)c2)CN(S(=O)(=O)c2ccc(C)cc2)C[C@@H]1OC(C)=O` came in with a TGI of more than 100 µM.
Still for that read-out and setting: the same measure for `COc1ccccc1N/C(=C\C(=O)C(=O)NC12CC3CC(CC(C3)C1)C2)c1ccccc1`: more than 10 µM; for `CC(C)(C)c1ccc2c(c1)CNCCNCc1cc(C(C)(C)C)ccc1OCC1(CO2)COc2ccc(C(C)(C)C)cc2CNCCNCc2cc(C(C)(C)C)ccc2OC1`: 0.786 µM; for `O=C(CCCCCCCCC(=O)NN1C(=O)/C(=C\c2ccc(O)c(O)c2)SC1c1ccc(Cl)cc1)NN1C(=O)/C(=C\c2ccc(O)c(O)c2)SC1c1ccc(Cl)cc1` (stereo not drawn): more than 100 µM.
Still for that read-out and setting: the same measure for `CC(C)Sc1nc(C#N)cc2c1CCCC2`: more than 100 µM.
Still for that read-out and setting: the same measure for `O=C(CC(=O)n1nc(-c2ccccc2)c(N=Nc2ccccc2C(=O)O)c1-c1ccccc1)Nc1ccc(Cl)cc1`: more than 100 µM; for `CN1C(=O)N(c2ccccc2)C2(CCN(CC3COc4ccccc4O3)CC2)C1=O` (stereo not drawn): more than 100 µM.
Take `Oc1ccc(/C=C/c2cc(O)cc(O)c2)cc1`: the TGI was more than 100 µM.
Same read-out and setting: for `O=C(O)c1c2c(cc3c1CC1(Cc4ccccc4C1)C3)CCC2` the value was more than 100 µM; for `CN(C)CCCOC(=O)C(c1ccccc1)C1(O)CCSCC1` (stereo not drawn), more than 100 µM; for `COc1cc(-c2cc(=O)c3cc4c(cc3[nH]2)OCO4)cc(OC)c1O`, more than 10 µM.
Still for that read-out and setting: the same measure for `C[C@@]12[C@H]3CC[C@@H]1[C@H](O)C(=O)N2CC3`: more than 100 µM; for `Cn1cc2ccccc2c1-c1nc(N)nc(F)n1`: more than 100 µM; for `O=C1CCC[C@@H]2NC[C@@H](c3ccc4c(c3)OCO4)[C@H]12`: more than 25 µM.
The same measure, in the same setting: for `O=C(Nc1ccc(Br)cc1)c1c(-c2ccccc2)c2ccc(O)cc2oc1=O` the value was more than 10 µM.
As for `CC1=C(O)C(=O)[C@@H]2O[C@@H]2C1=O`, the TGI was found to be 35.6 µM.
On the same count and under the same terms, for `CC(O[Si](c1ccccc1)(c1ccccc1)C(C)(C)C)[C@H](NC(=O)OC(C)(C)C)C(=O)O[Si](c1ccccc1)(c1ccccc1)C(C)(C)C` (stereo partly drawn) the value was 34.7 µM; for `Cc1ccc(-c2c(C#N)c(-c3ccccc3)n(NS(=O)(=O)c3ccccc3)c(=O)c2C#N)cc1`, more than 100 µM; for `O=c1[nH]n2c(=O)cc[nH]c2c1-c1nnns1`, more than 100 µM.
On the same count and under the same terms, for `CCCc1cc(=O)c2c(C)c3[nH]c4ccc(Cl)cc4c3c(C)c2[nH]1` the value was 3.02 µM; for `CC(CN1c2ccccc2Sc2ccccc21)N(C)C` (stereo not drawn), 37.5 µM.
Same read-out and setting: the same measure for `CCCCN1C(=O)CC2[C@@H]3CCc4cc(OC(C)=O)ccc4C3CC[C@]2(C)C1=O` (stereo partly drawn): more than 10 µM.

Another test has as its system A549 NSCLC. The test can be described thus: growth of human tumour cells (NCI), 48 h.
The molecule `NC(C(F)(F)F)(C(F)(F)F)P(=O)(Cc1ccccc1)Cc1ccccc1` showed a TGI of more than 100 µM.
As to `O=C(O)CSc1nnc(COc2ccc(Cl)cc2)n1-c1ccccc1`, the TGI was more than 100 µM.
Same read-out and setting: the same measure for `Cc1cc(N(CCC#N)CCC#N)ccc1/C=N/NC(=O)c1cc(Cl)ccc1O`: more than 100 µM.
The same measure, in the same setting: the same measure for `CC[C@]1(Cc2ccc(OC)c(OC)c2)CN(S(=O)(=O)c2ccc(C)cc2)C[C@@H]1OC(C)=O`: more than 100 µM.
On to `O=C(CCCCCCCCC(=O)NN1C(=O)/C(=C\c2ccc(O)c(O)c2)SC1c1ccc(Cl)cc1)NN1C(=O)/C(=C\c2ccc(O)c(O)c2)SC1c1ccc(Cl)cc1` (stereo not drawn), for which the TGI was more than 76.8 µM.
The molecule `CC(C)Sc1nc(C#N)cc2c1CCCC2` showed a TGI of more than 100 µM.
`O=C(CC(=O)n1nc(-c2ccccc2)c(N=Nc2ccccc2C(=O)O)c1-c1ccccc1)Nc1ccc(Cl)cc1`: the TGI is more than 100 µM.
On the same count and under the same terms, the same measure for `CN1C(=O)N(c2ccccc2)C2(CCN(CC3COc4ccccc4O3)CC2)C1=O` (stereo not drawn): more than 100 µM.
Still for that read-out and setting: the same measure for `CCOC(=O)C1Cc2[nH]c3ccccc3c2C(C)C1C` (stereo not drawn): 34.8 µM; for `Oc1ccc(/C=C/c2cc(O)cc(O)c2)cc1`: more than 100 µM; for `O=C(CN1c2ccccc2Sc2ccccc21)N1CCNCC1`: more than 100 µM.
Still for that read-out and setting: the same measure for `O=C(O)c1c2c(cc3c1CC1(Cc4ccccc4C1)C3)CCC2`: more than 100 µM; for `Cc1nc(-c2ccc([N+](=O)[O-])cc2)cn2c1nc1ccccc12`: more than 100 µM.
Consider `CN(C)CCCOC(=O)C(c1ccccc1)C1(O)CCSCC1` (stereo not drawn), for which the TGI is more than 100 µM.
Molecule `COc1cc(-c2cc(=O)c3cc4c(cc3[nH]2)OCO4)cc(OC)c1O` gave a TGI of more than 10 µM.
Regarding `C[C@@]12[C@H]3CC[C@@H]1[C@H](O)C(=O)N2CC3`, the TGI is more than 100 µM.
Same read-out and setting: for `Cn1cc2ccccc2c1-c1nc(N)nc(F)n1` the value was more than 100 µM; for `O=C1CCC[C@@H]2NC[C@@H](c3ccc4c(c3)OCO4)[C@H]12`, more than 25 µM.
Same read-out and setting: the same measure for `c1ccc2c(c1)OC(N1CCCC1)c1cnc(N3CCCC3)nc1-2` (stereo not drawn): more than 100 µM; for `CC1=C(O)C(=O)[C@@H]2O[C@@H]2C1=O`: 99 µM; for `CC(O[Si](c1ccccc1)(c1ccccc1)C(C)(C)C)[C@H](NC(=O)OC(C)(C)C)C(=O)O[Si](c1ccccc1)(c1ccccc1)C(C)(C)C` (stereo partly drawn): 27.9 µM.
The same measure, in the same setting: the same measure for `Cc1ccc(-c2c(C#N)c(-c3ccccc3)n(NS(=O)(=O)c3ccccc3)c(=O)c2C#N)cc1`: more than 100 µM; for `COc1ccc(C(C#N)NNC(=O)c2ccccc2O)cc1OC` (stereo not drawn): more than 100 µM; for `O=c1[nH]n2c(=O)cc[nH]c2c1-c1nnns1`: more than 100 µM.
`CCCc1cc(=O)c2c(C)c3[nH]c4ccc(Cl)cc4c3c(C)c2[nH]1` gave a TGI of 4.81 µM.
In turn, `CC(CN1c2ccccc2Sc2ccccc21)N(C)C` (stereo not drawn) displayed a TGI of 35.7 µM.
Same read-out and setting: the same measure for `N.N.N.O=[N+]([O-])[O-].O=[N+]([O-])[O-].O=[N+]([O-])[O-].O=[N+]([O-])[O-].[Co+3]`: more than 100 µM; for `Cc1nnc(Nc2ccccc2)o1`: more than 100 µM; for `CCCCN1C(=O)CC2[C@@H]3CCc4cc(OC(C)=O)ccc4C3CC[C@]2(C)C1=O` (stereo partly drawn): more than 10 µM.
